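The compound was tested at five concentrations on cells cultured in 96-well plates, with a 48-hour exposure period. GI50 marks 50% less growth.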 Calls of active or inactive are those of the source. No stated cut-off is given here; in the data, active = GI50 up to about 1.1 µM and inactive = higher.
Assays:
Test in all cases: NCI anticancer screen, dose series, 48 h
OVCAR-4 = tested on: OVCAR-4
RXF 393 = tested on: RXF 393
NCI/ADR-RES = tested on: NCI/ADR-RES
Malme-3M = tested on: Malme-3M
786-0 = tested on: 786-0
SF-295 = tested on: SF-295
OVCAR-3 = tested on: OVCAR-3
LOX IMVI = tested on: LOX IMVI
OVCAR-5 = tested on: OVCAR-5
RPMI-8226 = tested on: RPMI-8226
HCT-15 = tested on: HCT-15
UACC-257 = tested on: UACC-257
MDA-MB-231 = tested on: MDA-MB-231
MOLT-4 = tested on: MOLT-4
U-251 = tested on: U-251
SK-MEL-28 = tested on: SK-MEL-28
K562 = tested on: K562
NCI-H226 = tested on: NCI-H226
OVCAR-8 = tested on: OVCAR-8
T47D = tested on: T47D

SMILES	GI50 (OVCAR-4)	GI50 (RXF 393)	GI50 (NCI/ADR-RES)	GI50 (Malme-3M)	GI50 (786-0)	GI50 (SF-295)	GI50 (OVCAR-3)	GI50 (LOX IMVI)	GI50 (OVCAR-5)	GI50 (RPMI-8226)	GI50 (HCT-15)	GI50 (UACC-257)	GI50 (MDA-MB-231)	GI50 (MOLT-4)	GI50 (U-251)	GI50 (SK-MEL-28)	GI50 (K562)	GI50 (NCI-H226)	GI50 (OVCAR-8)	GI50 (T47D)
Cc1ccc2c(O)cc(-c3cc4ccccc4s3)nc2n1	> 75 µM (inactive)	33.7 µM (inactive)	> 57.7 µM (inactive)	> 48.1 µM (inactive)	> 75.5 µM (inactive)	40.1 µM (inactive)	> 100 µM (inactive)	> 94.6 µM (inactive)	> 100 µM (inactive)	4.33 µM (inactive)	> 70.3 µM	> 100 µM (inactive)	> 100 µM (inactive)	> 100 µM (inactive)	> 100 µM (inactive)	> 100 µM (inactive)	> 100 µM (inactive)	14.2 µM (inactive)	30.3 µM (inactive)	2.13 µM (inactive)
O=C(SCc1cccc2ccccc12)c1ccc(Cl)cc1	> 100 µM (inactive)	> 100 µM (inactive)	> 100 µM (inactive)	96.6 µM (inactive)	> 100 µM (inactive)	> 100 µM (inactive)	44.4 µM (inactive)	> 100 µM (inactive)	> 100 µM (inactive)	46.9 µM (inactive)	50.9 µM	76.7 µM (inactive)	> 100 µM (inactive)		> 100 µM (inactive)	> 100 µM (inactive)	48.4 µM (inactive)	> 100 µM (inactive)	> 100 µM (inactive)	81.7 µM (inactive)
COC(=O)CCn1cnc2c(SC)ncnc21	> 100 µM (inactive)	> 100 µM (inactive)	> 100 µM (inactive)	> 100 µM (inactive)	> 100 µM (inactive)	> 100 µM (inactive)	> 100 µM (inactive)	> 100 µM (inactive)	> 100 µM (inactive)	> 100 µM (inactive)		> 100 µM (inactive)	> 100 µM (inactive)	> 100 µM (inactive)		> 100 µM (inactive)	> 100 µM (inactive)	> 100 µM (inactive)	> 100 µM (inactive)	> 100 µM (inactive)

From ChEMBL document CHEMBL1201862, “PubChem BioAssay data set” (2004)
